For ten molecules, IC50 results are on record in US5700780A, “Antiviral peptide derivatives having a 2-oxoalkyl amino acid side chain” (Boehringer Ingelheim (Canada), Ltd., priority 1989, dated 1997).

SMILES strings stand for the structures. Where a SMILES comes first, the peptide text is derived from it.

This assay deals with HSV-1 ribonucleotide reductase (Human herpesvirus 1, UniProt P08543). Nature of the assay: biochemical. The source says: Inhibition of Herpes Simplex Virus (HSV, type 1) Ribonucleotide Reductase
Sequence of HSV-1 ribonucleotide reductase (P08543 whole entry): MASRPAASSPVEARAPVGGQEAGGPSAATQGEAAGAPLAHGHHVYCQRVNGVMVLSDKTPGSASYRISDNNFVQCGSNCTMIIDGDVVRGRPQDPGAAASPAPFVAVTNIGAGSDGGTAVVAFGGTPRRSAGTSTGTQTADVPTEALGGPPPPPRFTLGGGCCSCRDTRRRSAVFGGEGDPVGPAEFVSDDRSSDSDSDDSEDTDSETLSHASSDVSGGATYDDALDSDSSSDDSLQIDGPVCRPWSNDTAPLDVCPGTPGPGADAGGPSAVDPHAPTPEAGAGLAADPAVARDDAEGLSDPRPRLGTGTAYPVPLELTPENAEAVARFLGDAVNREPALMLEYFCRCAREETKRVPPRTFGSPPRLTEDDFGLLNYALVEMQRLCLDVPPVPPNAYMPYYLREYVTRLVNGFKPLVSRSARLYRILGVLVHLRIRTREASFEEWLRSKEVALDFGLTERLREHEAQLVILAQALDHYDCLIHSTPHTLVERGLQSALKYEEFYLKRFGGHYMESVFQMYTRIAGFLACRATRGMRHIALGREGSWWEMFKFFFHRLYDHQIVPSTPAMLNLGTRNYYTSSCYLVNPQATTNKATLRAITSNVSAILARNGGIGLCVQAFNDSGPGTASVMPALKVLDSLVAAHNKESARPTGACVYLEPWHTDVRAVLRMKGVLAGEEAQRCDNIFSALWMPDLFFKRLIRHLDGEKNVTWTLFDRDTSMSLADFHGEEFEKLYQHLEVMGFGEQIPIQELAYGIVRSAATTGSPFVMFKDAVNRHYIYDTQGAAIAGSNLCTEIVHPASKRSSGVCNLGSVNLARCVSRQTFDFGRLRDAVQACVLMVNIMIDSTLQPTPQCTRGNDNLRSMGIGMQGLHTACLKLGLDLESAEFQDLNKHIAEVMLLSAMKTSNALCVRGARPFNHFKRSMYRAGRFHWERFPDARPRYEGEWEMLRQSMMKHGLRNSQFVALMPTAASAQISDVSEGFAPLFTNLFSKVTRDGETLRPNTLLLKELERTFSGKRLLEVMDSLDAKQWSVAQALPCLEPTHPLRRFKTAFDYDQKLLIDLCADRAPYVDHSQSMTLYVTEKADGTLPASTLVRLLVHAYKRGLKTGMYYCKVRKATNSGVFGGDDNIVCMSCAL
HSV-1 ribonucleotide reductase (partially purified) was obtained from quiescent BHK-21/C13 cells infected with strain F HSV-1 virus at 10 plaque forming units/cell as described by E. A. Cohen et al., J. Gen. Virol., 66, 733 (1985).
The procedure described by P. Gaudreau et al., J. Biol, Chem., 262, 12413 (1987), was employed. […] The number of units of the enzyme preparation used in each assay was constant, based on the specific activity of the enzyme preparation.
`CCCCCCCC(=O)C[C@H](NC(=O)[C@@H](NC(=O)C(CC)CC)[C@@H](C)CC)C(=O)N[C@@H](CC(=O)O)C(=O)N[C@@H](CC(C)C)C(=O)O` [2-Ethylbutanoyl-Ile--NHCH(2-oxononyl)-CO--Asp--Leu--OH] registered a half-inhibitory concentration (IC50) of 24 µM. This lies in the double-digit micromolar range.
In the case of `CCCCCCCCCCCC(=O)C[C@H](NC(=O)[C@@H](NC(=O)C(CC)CC)[C@@H](C)CC)C(=O)N[C@@H](CC(=O)O)C(=O)N[C@@H](CC(C)C)C(=O)O` [2-Ethylbutanoyl-Ile--NHCH(2-oxotridecyl)-CO--Asp--Leu--OH], the IC50 came out at 8.5 µM.
`CCC(CC)C(=O)N[C@H](C(=O)N[C@@H](CC(=O)C1CCCC1)C(=O)N[C@@H](CC(=O)O)C(=O)NCCC(C)(C)C)C(C)(C)C` [2-Ethylbutanoyl-Tbg--NHCH(2-cyclopentyl-2-oxoethyl)-CO--Asp--NHCH2 CH2 C(CH3)3] came in with a half-maximal inhibitory concentration (IC50) of 23 µM.
`CCCCCC(=O)C[C@H](NC(=O)[C@@H](NC(=O)C(CC)CC)C(C)(C)C)C(=O)N[C@@H](CC(=O)O)C(=O)N[C@@H](CC(C)C)C(=O)O` [2-Ethylbutanoyl-Tbg--NHCH(2-oxoheptyl)-CO--Asp--Leu--OH] showed a half-maximal inhibitory concentration (IC50) of 7.5 µM.
Take `CCCCCCCC(=O)C[C@H](NC(=O)[C@@H](NC(=O)C(CC)CC)C(C)(C)C)C(=O)N[C@@H](CC(=O)O)C(=O)N[C@@H](CC(C)C)C(=O)O` [2-Ethylbutanoyl-Tbg--NHCH(2-oxononyl)-CO--Asp--Leu--OH]: half-maximal inhibition (IC50) was put at 4.5 µM.
As to `CCCCCCCC(=O)C[C@H](NC(=O)[C@@H](NC(=O)C(CC)CC)C(C)(C)C)C(=O)N[C@H](C(=O)N[C@@H](CC(C)C)C(=O)O)C(C)(C)C(=O)O` [2-Ethylbutanoyl-Tbg--NHCH(2-oxononyl)-CO--NHCH[C(CH3)2 COOH]--CO--Leu--OH], half-maximal inhibition (IC50) required 1.2 µM.
Turning to `CC[C@H](C)[C@H](NC(=O)[C@H](C(C)C)N(C)C(=O)CCc1ccccc1)C(=O)N[C@@H](CC(=O)C1CCCC1)C(=O)N[C@@H](CC(=O)O)C(=O)N[C@@H](CC(C)C)C(=O)O` [PhCH2 CH2 CO--N--Me--Val--Ile--NHCH(2-cyclopentyl-2-oxoethyl)-CO--Asp--Leu--OH] (HELM PEPTIDE1{[O=C(CCc1ccccc1)[*:2]].[meV].I.[O=C(C[C@H](N[*:1])C(=O)[*:2])C1CCCC1].D.L}$$$$V2.0), the IC50 was found to be 0.18 µM. This IC50 is about 6.7-fold lower than that of the molecule before.
`CCCCCCCC(=O)C[C@H](NC(=O)[C@@H](NC(=O)[C@H](C(C)C)N(C)C(=O)CCc1ccccc1)[C@@H](C)CC)C(=O)N[C@@H](CC(=O)O)C(=O)N[C@@H](CC(C)C)C(=O)O` [PhCH2 CH2 CO--N--Me--Val--Ile--NHCH(2-oxononyl)-CO--Asp--Leu--OH] (HELM PEPTIDE1{[O=C(CCc1ccccc1)[*:2]].[meV].I.[CCCCCCCC(=O)C[C@H](N[*:1])C(=O)[*:2]].D.L}$$$$V2.0) displayed an IC50 of 0.42 µM.
`CC[C@H](C)[C@H](NC(=O)[C@H](C(C)C)N(C)C(=O)CCc1ccccc1)C(=O)N[C@@H](CC(C)=O)C(=O)N[C@@H](CC(=O)O)C(=O)N[C@@H](CC(C)C)C(=O)O` [PhCH2 CH2 CO--N--Me--Val--Ile--NHCH(2-oxopropyl)-CO--Asp--Leu--OH] (HELM PEPTIDE1{[O=C(CCc1ccccc1)[*:2]].[meV].I.[CC(=O)C[C@H](N[*:1])C(=O)[*:2]].D.L}$$$$V2.0) yielded a half-maximal inhibitory concentration (IC50) of 1.3 µM.
Regarding `CCCCCCCCCCCC(=O)C[C@H](NC(=O)[C@@H](NC(=O)[C@H](C(C)C)N(C)C(=O)CCc1ccccc1)[C@@H](C)CC)C(=O)N[C@@H](CC(=O)O)C(=O)N[C@@H](CC(C)C)C(N)=O` [PhCH2 CH2 CO--N--Me--Val--Ile--NHCH(2-oxotridecyl)-CO--Asp--Leu--NH2] (HELM PEPTIDE1{[O=C(CCc1ccccc1)[*:2]].[meV].I.[CCCCCCCCCCCC(=O)C[C@H](N[*:1])C(=O)[*:2]].D.L.[am]}$$$$V2.0), the IC50 was determined as 6.3 µM.

Broadly, the IC50 is the concentration needed to halve the response being measured.
